Experimental data: patent US20090325986A1, “Deazapurine Analogs of 1'-Aza-L-Nucleosides” (priority 2005, published 2009)

Columns and labels:
Experiment in all cases: biochemical
plasmodial PNPase = plasmodial PNPase (Plasmodium falciparum, UniProt Q8I3X4)
Text: (§1) The inhibition constants KI are the dissociation constants for the enzyme-inhibitor complex measured from initial reaction rates. For many, but not all, immucillin inhibitors, a slow-onset of inhibition then occurs consequent upon a time dependent conformational change in the enzyme that leads to tighter binding characterised by the constant KI* (J. F. Morrison and C. T. Walsh, Adv, Enzymol. Relat. Areas Mol. Biol., 1988, 61, 201-310).

bovine PNPase = bovine PNPase (Bos taurus, UniProt P55859); conditions: for Ki: B. taurus PNPase
Text: as §1

human PNPase = human PNPase (Homo sapiens, UniProt P00491); conditions: for Ki: H. sapiens PNPase
Text: as §1

[1] = Ki, Plasmodium falciparum PNPase, dissociation constant of enzyme-inhibitor complex from initial reaction rates
[2] = Ki*, tighter binding after slow-onset inhibition
[3] = Ki, dissociation constant of enzyme-inhibitor complex from initial reaction rates

Sequence of bovine PNPase (P55859 whole entry): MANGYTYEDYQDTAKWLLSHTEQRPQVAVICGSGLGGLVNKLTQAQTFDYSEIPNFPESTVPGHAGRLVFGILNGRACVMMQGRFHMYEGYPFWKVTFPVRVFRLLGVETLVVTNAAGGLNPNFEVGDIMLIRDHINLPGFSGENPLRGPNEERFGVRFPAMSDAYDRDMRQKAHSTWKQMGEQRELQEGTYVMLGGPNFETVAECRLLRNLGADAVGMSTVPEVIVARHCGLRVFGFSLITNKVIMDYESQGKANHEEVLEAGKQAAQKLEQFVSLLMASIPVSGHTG
Sequence of human PNPase (P00491 whole entry): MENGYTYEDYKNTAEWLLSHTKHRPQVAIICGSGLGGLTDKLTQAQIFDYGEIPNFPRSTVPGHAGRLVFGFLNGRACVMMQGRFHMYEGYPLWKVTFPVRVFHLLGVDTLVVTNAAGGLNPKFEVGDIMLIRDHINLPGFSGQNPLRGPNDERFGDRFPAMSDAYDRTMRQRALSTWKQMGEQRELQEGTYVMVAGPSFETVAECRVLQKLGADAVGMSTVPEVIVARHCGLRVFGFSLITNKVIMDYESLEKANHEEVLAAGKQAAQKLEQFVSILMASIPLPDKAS
Sequence of plasmodial PNPase (Q8I3X4 whole entry): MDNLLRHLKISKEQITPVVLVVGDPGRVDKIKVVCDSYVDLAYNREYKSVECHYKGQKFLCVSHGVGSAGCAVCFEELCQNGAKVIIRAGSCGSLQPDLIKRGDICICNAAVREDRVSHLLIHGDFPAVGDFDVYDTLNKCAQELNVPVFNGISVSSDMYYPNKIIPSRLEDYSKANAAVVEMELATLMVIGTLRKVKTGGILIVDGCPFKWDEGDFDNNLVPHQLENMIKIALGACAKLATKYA

Ki (plasmodial PNPase; Ki*, Plasmodium falciparum PNPase, tighter binding after slow-onset inhibition) [nM] | type of inhibition (plasmodial PNPase; Plasmodium falciparum PNP) | type of inhibition (bovine PNPase; bovine PNP) | Ki (human PNPase; [2]) [nM] | Ki (human PNPase; [3]) [nM] | type of inhibition (human PNPase; human PNP) | SMILES | Ki (plasmodial PNPase; [1]) [nM] | Ki* (plasmodial PNPase; Plasmodium falciparum PNPase, tighter binding after slow-onset inhibition) | Ki (bovine PNPase; [2]) [nM] | Ki (bovine PNPase; [3]) [nM]
 |  |  |  |  |  | O=c1[nH]cnc2c(CN3C[C@H](CO)[C@@H](O)C3)c[nH]c12 [[(+)-10], reference compound] | 0.5 ± 0.04 | Not observed | 0.11 ± 0.014 | 2.1 ± 0.3
80 ± 7 | slow onset tight binding inhibitor | slow onset tight binding inhibitor | 0.68 ± 0.26 | 1.5 ± 0.1 | slow onset tight binding inhibitor | O=c1[nH]cnc2c(CN3C[C@@H](CO)[C@H](O)C3)c[nH]c12 [[(−)-10], (3S,4S)-1-[(9-Deazahypoxanthin-9-yl)methyl]-4-(hydroxymethyl)pyrrolidin-3-ol] | 1700 ± 300 |  | 0.5 ± 0.1 | 19 ± 5
